Measured values: paper PMC3614987, “Exploring the Chemical Space around 8-Mercaptoguanine as a Route to New Inhibitors of the Folate Biosynthesis Enzyme HPPK” (PLoS ONE, 2013)
“Also recorded” adds a separate entry of the source. Like-named read-outs stand apart in the source and are kept apart here.

Key:
SaHPPK [1] = target: T1, SaHPPK (Staphylococcus aureus, UniProt A0A0H3JXR3); set-up: method as in Chhabra et al PlosONE 2012; conditions: ITC; ref Chhabra et al PlosONE 2012; cited from earlier work
SaHPPK [2] = target: T1, SaHPPK; set-up: method as in PMID 22276115; conditions: SPR and ITC; cited from earlier work
SaHPPK [3] = target: T1, SaHPPK; set-up: method as in PMID 22276115; conditions: inhibition of the S. aureus enzyme; cited from earlier work
SaHPPK [4] = target: T1, SaHPPK; assay: SPR binding to SaHPPK
From the text: Initially, the binding of each of the test compounds to SaHPPK was quantitatively assessed using SPR (Fig. S1, S2). […] Moreover, all sensorgrams (Fig. S1 and S2) were of high quality and consistent with near perfect 1∶1 stoichiometric binding of analogues. Table 1 lists the estimated equilibrium dissociation constants (KD). […] This supports the hypothesis that the 8-mercapto group of 8-MG aids binding through the formation of one or more favorable interactions with SaHPPK.
All SPR binding experiments were performed as described previously. The only difference was the use of a sulfhydryl reactive maleimide-activated biotin derivative (Thermo Scientific, 1-biotinamido-4-(4′-[maleimidoethylcyclohexane]-carboxamido)butane. The maleimide-activated biotin was attached to the exposed surface cysteine residue of SaHPPK according to manufacturer’s instructions. The resulting site-specific biotinylated protein was immobilized onto the sensor chip surface using the Biotin capture kit (GE Healthcare). All analogues were serially diluted (either 2- or 3-fold from 126 µM down to 1.5 µM) in SPR binding buffer (50 mM HEPES, 150 mMNaCl, 1 mM TCEP, 0.05% (v/v) Tween-20, 10 mM MgCl2, 5% (v/v) DMSO, pH 8.0) and injected for 30 sec contact time at 60 µL/min and then allowed to dissociate for 60 sec. Binding sensorgrams were processed using the Scrubber (version 2c, BioLogic Software, Campbell, Australia). To determine the binding affinity (equilibrium dissociation constant; KD), responses at equilibrium for each compound were fit to a 1∶1 steady state affinity model available within Scrubber.

SaHPPK [5] = target: T1, SaHPPK; assay: ITC binding to SaHPPK; conditions: 298 K; for ΔG: calculated as -RT.lnKa; for TΔS: calculated using ΔG = ΔH - TΔS; for Kd: read-out: K D ITC
Method: To corroborate the ligand binding affinities determined by SPR, and to determine the enthalpic and entropic contributions to the free energy of binding, ITC experiments were performed for selected compounds (21a and 21c–21e) (Table 2, Fig. S3). […] To investigate the factors contributing to the free energy of binding, we solved the structure of SaHPPK in complex with 21a.
Experiments were performed using an iTC200 instrument (MicroCal) at 298 K, with the ligands titrated into solutions of SaHPPK using 18×2.2 µL injections. Data were fitted using Origin software to yield the thermodynamic parameters, ΔH, KD and N (the binding stoichiometry), assuming a cell volume of 0.2 mL. These were then used to calculate the Gibb’s free energy of binding, ΔG (-RT.lnK a), and entropy of binding, ΔS (using ΔG = ΔH - TΔS). A stock solution of SaHPPK was dialyzed overnight into 50 mM HEPES, 1 mM TCEP, 10 mM MgCl2, pH 8.0 buffer with the addition of 5% DMSO (v/v) prior to running the experiment. For titrations with compounds 21a–e, SaHPPK was typically at 30 µM and the ligand stocks were at 1–1.5 mM dissolved in the above buffer then diluted into more of the same buffer. There was no apparent issue with limited solubility of 21a–c compromising either the stock solutions or the injected concentrations.

SaHPPK [6] = target: T1, SaHPPK; assay: 2D 15N NMR titration of 15N-labelled SaHPPK; format: binding
Method: ^15N-labelled protein samples for NMR spectroscopy were prepared as described. 2D soFast ^15N HMQC [43] NMR experiments were recorded on a Varian Inova 600 MHz NMR spectrometer equipped with a cryoprobe and Z axis gradient on samples of ∼100 µM ^15N-labelled SaHPPK dissolved in 50 mM HEPES buffer (pH 8.0, 90% H2O 10% D2O, 1% sorbitol) by titrating in aliquots from a 25 mM stock of 21a dissolved in DMSO-D6.

SaHPPK [7] = target: T1, SaHPPK; conditions: cofactor analogue; no reference given; cited from earlier work
HPPK = target: HPPK; set-up: method as in PMID 10751386, PMID 12093297, PMID 11311059, PMID 10825540, PMID 22169600; conditions: ATP binds prior to the substrate; cited from earlier work
[8] = SPR, in the presence of 10 mM Mg2+/1 mM ATP, 293 K, read-out: K D b
[9] = SPR, in the presence of 10 mM Mg2+, 293 K
[10] = SPR, in the presence of 10 mM Mg2+, 293 K, read-out: K D a

| Kd (SaHPPK [4]; [8]) | melting point | Kd (SaHPPK [4]; [10]) | N (binding stoichiometry) (SaHPPK [5]) | ΔH (SaHPPK [5]) | ΔG (SaHPPK [5]) | TΔS (SaHPPK [5]) | Kd (SaHPPK [5]) | SMILES | other results |
| --- | --- | --- | --- | --- | --- | --- | --- | --- | --- |
|  |  |  |  |  |  |  |  | Nc1nc2nc(S)[nH]c2c(=O)[nH]1 [8-MG, 8-mercaptoguanine] | N (binding stoichiometry) (SaHPPK [1]): 1.0±0.06; TΔS (SaHPPK [1]): -12.9 ± 3.5 kcal/mol; ΔG (SaHPPK [1]): -6.7 ± 0.2 kcal/mol; ΔH (SaHPPK [1]): -19.6 ± 3.4 kcal/mol; binding relative to the cofactor (ATP / AMPCPP) (SaHPPK [2]): non-competitive; IC50 (SaHPPK [3]): ~41 µM |
| 108 ± 5 µM | 252 to 257 °C (dec.) |  |  |  |  |  |  | CNc1nc2nc(N)[nH]c(=O)c2[nH]1 [10a, 8-(Methylamino)guanine] | K D a (SaHPPK [4]; [9]): did not bind; also recorded: No binding |
| 410 ± 10 µM |  | 194 ± 5 µM |  |  |  |  |  | Cn1c(S)nc2c(=O)[nH]c(N)nc21 [15a] |  |
| 340 ± 10 µM | 240 to 244 °C (dec.) | 190 ± 10 µM |  |  |  |  |  | CCn1c(S)nc2c(=O)[nH]c(N)nc21 [15b, 8-Mercapto-9-ethylguanine] |  |
| 201 ± 6 µM | > 300 °C (dec.) | 106 ± 2 µM |  |  |  |  |  | Nc1nc2c(nc(S)n2Cc2ccccc2)c(=O)[nH]1 [15c, 8-Mercapto-9-benzylguanine] |  |
| 510 ± 20 µM | 291 to 295 °C (dec.) | 145 ± 4 µM |  |  |  |  |  | Nc1nc2c(nc(S)n2CCc2ccccc2)c(=O)[nH]1 [15d, 8-Mercapto-9-phenethylguanine] |  |
| 130 ± 10 µM | > 300 °C | 12.3 ± 1 µM | 0.8±0.10 | -10.5 ± 0.6 kcal/mol | -6.4 ± 0.1 kcal/mol | -4.1 ± 0.5 kcal/mol | 16.7 ± 3.5 µM | Nc1nc2nc(S)n(CCO)c2c(=O)[nH]1 [21a, 7-(2-Hydroxyethyl)-8-mercaptoguanine] | Kd (SaHPPK [4]; approximate value, over 15 heavy atoms, read-out: K D (ligand efficiency comparison)): ~10 µM; binding relative to the cofactor (ATP / AMPCPP) (SaHPPK [6]; NMR (and SPR), saturating AMPCPP 1 mM, 10 mM magnesium): competitive binding with the ATP cofactor; also recorded: competitive with AMPCPP; magnesium dependence of binding (SaHPPK [6]; titration into apo and magnesium-loaded SaHPPK): not magnesium-dependent |
| 140 ± 4 µM | 247 to 253 °C (dec.) |  |  |  |  |  |  | Nc1nc2nc(S)n(CC(=O)O)c2c(=O)[nH]1 [21b, 2-(8-Mercaptoguanin-7-yl)acetic acid] | K D a (SaHPPK [4]; [9]): did not bind; also recorded: No binding |
| 160 ± 20 µM | 280 to 287 °C (dec.) | 26.4 ± 3 µM | 1.2±0.02 | -5.8 ± 0.1 kcal/mol | -6.2 ± 0.1 kcal/mol | 0.4 ± 0.2 kcal/mol | 22.4 ± 2 µM | NCCn1c(S)nc2nc(N)[nH]c(=O)c21 [21c, 7-(2-Aminoethyl)-8-mercaptoguanine] |  |
| 121 ± 6 µM | 239 to 243 °C (dec.) | 25.9 ± 2 µM | 1.3±0.05 | -6.2 ± 0.4 kcal/mol | -6.0 ± 0.1 kcal/mol | -0.2 ± 0.5 kcal/mol | 34.3 ± 6.2 µM | NCCCn1c(S)nc2nc(N)[nH]c(=O)c21 [21d, 7-(3-Aminopropyl)-8-mercaptoguanine] |  |
|  | 256 to 262 °C (dec.) | 30 ± 4 µM | 1.4±0.02 | -4.3 ± 0.1 kcal/mol | -6.0 ± 0.1 kcal/mol | 1.7 ± 0.2 kcal/mol | 35.1 ± 4.8 µM | N=C(N)NCCn1c(S)nc2nc(N)[nH]c(=O)c21 [21e, 7-(2-Guanidinoethyl)-8-mercaptoguanine] | K D b (SaHPPK [4]; SPR, in the presence of 10 mM Mg2+/1 mM ATP, 293 K): No binding |
|  |  |  |  |  |  |  |  | Nc1ncnc2c1ncn2[C@@H]1O[C@H](COP(=O)(O)CP(=O)(O)OP(=O)(O)O)[C@@H](O)[C@H]1O [AMPCPP] | Kd (SaHPPK [7]): 3 µM |
|  |  |  |  |  |  |  |  | Nc1ncnc2c1ncn2[C@@H]1O[C@H](COP(=O)(O)OP(=O)(O)OP(=O)(O)O)[C@@H](O)[C@H]1O [ATP] | Kd (HPPK): 2.6 to 4.5 µM |
